Experimental data reported in ChEMBL document CHEMBL5113368, “Meroterpenoids produced by fungi: Occurrence, structural diversity, biological activities, and their molecular targets” (Eur J Med Chem, 2021).

Key:
Acetylcholinesterase [1] = biological target: T1, Acetylcholinesterase (Homo sapiens, UniProt P22303); assay: Inhibition of AChE (unknown origin)
[2] = biological target: T2, Pancreatic triacylglycerol lipase (Sus scrofa, UniProt P00591); assay: Inhibition of porcine pancreatic lipase using p-Nitrophenyl butyrate substrate incubated for 15 mins by spectrophotometer analysis
T2 sequence (P00591 whole entry): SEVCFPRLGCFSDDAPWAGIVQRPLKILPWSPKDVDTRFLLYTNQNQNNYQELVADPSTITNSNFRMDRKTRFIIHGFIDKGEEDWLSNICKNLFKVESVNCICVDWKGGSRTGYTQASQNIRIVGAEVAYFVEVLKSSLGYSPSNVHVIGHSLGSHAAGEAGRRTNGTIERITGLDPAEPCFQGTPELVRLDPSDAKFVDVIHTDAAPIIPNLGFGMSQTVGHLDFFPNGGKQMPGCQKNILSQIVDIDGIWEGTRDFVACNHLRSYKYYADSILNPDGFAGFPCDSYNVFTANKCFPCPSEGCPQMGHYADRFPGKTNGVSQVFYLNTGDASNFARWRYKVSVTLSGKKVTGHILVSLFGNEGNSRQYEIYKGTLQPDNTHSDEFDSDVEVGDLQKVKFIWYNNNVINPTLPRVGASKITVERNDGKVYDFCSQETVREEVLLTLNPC

KB = assay: Cytotoxicity against human KB cells assessed as cell growth inhibition; assay type: functional, cell-based
NCI-H187 = assay: Cytotoxicity against human NCI-H187 cells assessed as cell growth inhibition; assay type: functional, cell-based
[3] = Inhibition of Saccharomyces cerevisiae alpha-glucosidase using p-nitrophenyl-alpha-D -glucopyranoside as substrate pre-incubated for 10 mins followed by substrate addition measured after 15 mins by absorbance based analysis
[4] = biological target: T3, Prostaglandin G/H synthase 2 (Homo sapiens, UniProt P35354); assay: Inhibition of COX-2 (unknown origin) by fluorescent inhibitor screening assay
T3 sequence (P35354 whole entry): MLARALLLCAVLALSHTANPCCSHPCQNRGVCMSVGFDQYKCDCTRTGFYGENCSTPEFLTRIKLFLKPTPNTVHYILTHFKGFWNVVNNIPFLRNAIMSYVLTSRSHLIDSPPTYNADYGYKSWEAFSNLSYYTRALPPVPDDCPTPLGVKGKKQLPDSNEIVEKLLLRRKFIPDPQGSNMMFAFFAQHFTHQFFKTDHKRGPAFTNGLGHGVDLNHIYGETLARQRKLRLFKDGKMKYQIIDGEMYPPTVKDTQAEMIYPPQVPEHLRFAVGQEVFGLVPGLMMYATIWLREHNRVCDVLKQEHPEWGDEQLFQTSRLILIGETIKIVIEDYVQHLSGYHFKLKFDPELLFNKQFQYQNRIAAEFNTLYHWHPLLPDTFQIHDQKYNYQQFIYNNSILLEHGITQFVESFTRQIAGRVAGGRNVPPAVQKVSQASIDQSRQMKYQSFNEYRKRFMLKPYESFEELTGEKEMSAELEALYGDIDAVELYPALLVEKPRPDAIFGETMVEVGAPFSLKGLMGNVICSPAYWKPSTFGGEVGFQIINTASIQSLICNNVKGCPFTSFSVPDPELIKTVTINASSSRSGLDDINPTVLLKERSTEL

RAW264.7 = assay: Anti-inflammatory activity in mouse RAW264.7 cells assessed as inhibition of NO production; assay type: functional, cell-based
[5] = biological target: T3, Prostaglandin G/H synthase 2; assay: Inhibition of COX-2 (unknown origin)
[6] = biological target: T4, Tyrosine-protein phosphatase non-receptor type 1 (Homo sapiens, UniProt P18031); assay: Inhibition of PTP1B (unknown origin) using pNPP as substrate by spectrophotometer analysis
T4 sequence (P18031 whole entry): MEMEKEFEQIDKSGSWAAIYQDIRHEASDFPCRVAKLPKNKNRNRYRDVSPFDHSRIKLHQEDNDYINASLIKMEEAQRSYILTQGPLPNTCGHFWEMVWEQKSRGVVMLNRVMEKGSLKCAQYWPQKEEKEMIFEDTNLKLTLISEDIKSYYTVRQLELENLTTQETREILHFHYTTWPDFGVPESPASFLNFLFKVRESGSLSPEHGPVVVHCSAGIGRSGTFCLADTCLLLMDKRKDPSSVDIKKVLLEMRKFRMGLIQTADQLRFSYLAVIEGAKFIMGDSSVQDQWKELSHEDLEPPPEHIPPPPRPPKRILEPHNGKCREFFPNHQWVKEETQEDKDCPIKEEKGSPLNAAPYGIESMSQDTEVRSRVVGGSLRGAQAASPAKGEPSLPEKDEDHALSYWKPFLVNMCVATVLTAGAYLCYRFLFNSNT

Acetylcholinesterase [7] = biological target: T1, Acetylcholinesterase; assay: Inhibition of human erythrocyte AChE using acetylthiocholine iodide as substrate incubated for 20 mins by DTNB reagent based spectrophotometric method
[8] = biological target: Epithelial discoidin domain-containing receptor 1 (Homo sapiens, UniProt Q08345); assay: Inhibition of DDR1 (unknown origin) by lanthascreen eu kinase activity assay
[9] = biological target: T5, Tyrosine-protein kinase JAK3 (Homo sapiens, UniProt P52333); assay: Inhibition of JAK3 (unknown origin) by FRET-based Z'-Lyte assay
T5 sequence (P52333 whole entry): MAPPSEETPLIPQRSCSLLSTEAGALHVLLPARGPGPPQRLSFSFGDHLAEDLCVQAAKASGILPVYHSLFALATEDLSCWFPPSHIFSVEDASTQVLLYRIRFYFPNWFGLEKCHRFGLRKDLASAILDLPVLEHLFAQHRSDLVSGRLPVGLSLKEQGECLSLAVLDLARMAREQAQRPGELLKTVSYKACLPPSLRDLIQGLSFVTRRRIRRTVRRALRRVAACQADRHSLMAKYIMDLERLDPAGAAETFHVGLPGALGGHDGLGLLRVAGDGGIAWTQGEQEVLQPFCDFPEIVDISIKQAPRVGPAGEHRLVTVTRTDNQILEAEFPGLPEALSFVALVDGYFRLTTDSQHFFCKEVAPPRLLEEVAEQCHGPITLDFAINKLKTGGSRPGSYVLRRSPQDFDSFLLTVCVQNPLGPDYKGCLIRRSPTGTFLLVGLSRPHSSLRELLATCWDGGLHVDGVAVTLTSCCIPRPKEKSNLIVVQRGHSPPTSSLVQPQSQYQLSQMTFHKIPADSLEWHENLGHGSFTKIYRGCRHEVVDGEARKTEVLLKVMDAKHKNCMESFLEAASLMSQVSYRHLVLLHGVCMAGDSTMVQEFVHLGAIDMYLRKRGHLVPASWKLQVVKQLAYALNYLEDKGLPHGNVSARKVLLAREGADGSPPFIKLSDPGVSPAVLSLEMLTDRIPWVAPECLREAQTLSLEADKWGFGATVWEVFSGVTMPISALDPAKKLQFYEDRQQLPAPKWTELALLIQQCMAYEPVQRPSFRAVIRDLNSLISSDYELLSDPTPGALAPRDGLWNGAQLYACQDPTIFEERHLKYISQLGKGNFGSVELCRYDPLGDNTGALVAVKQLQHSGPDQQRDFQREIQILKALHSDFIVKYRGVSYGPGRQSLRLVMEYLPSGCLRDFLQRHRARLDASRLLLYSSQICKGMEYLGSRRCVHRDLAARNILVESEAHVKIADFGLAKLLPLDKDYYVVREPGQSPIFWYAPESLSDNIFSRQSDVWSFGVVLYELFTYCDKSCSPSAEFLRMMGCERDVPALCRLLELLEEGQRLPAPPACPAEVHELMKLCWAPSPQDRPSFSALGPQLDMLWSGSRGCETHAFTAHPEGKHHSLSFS

Staphylococcus aureus = assay: Antibacterial activity against Staphylococcus aureus assessed as bacterial growth inhibition; assay type: functional, organism-based
[10] = biological target: T3, Prostaglandin G/H synthase 2; assay: Inhibition of human recombinant COX-2 pretreated with compound for 10 mins followed by substrate addition for 10 mins by fluorescent inhibitor screening assay
K562 = assay: Cytotoxicity against human K562 cells assessed as cell growth inhibition by CCK-8 method; assay type: functional, cell-based

T1 sequence (P22303 whole entry): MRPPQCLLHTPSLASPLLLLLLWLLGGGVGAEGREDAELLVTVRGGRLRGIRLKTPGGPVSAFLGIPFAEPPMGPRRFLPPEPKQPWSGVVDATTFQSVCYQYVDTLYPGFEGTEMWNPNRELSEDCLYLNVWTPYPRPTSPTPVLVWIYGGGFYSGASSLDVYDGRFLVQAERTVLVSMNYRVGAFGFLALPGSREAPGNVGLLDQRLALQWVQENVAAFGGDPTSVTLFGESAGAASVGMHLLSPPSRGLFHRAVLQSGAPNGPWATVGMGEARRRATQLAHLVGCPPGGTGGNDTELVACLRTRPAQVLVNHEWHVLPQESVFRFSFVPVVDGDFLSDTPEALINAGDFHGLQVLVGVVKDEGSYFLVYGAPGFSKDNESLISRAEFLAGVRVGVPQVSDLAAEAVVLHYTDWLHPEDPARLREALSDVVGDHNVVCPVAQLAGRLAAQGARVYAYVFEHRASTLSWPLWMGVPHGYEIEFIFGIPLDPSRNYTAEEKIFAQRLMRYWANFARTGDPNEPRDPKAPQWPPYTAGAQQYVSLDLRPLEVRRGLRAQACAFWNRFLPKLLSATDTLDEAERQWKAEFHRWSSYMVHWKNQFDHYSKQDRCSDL
Epithelial discoidin domain-containing receptor 1, sequence (Q08345 whole entry, the tested form may be a part): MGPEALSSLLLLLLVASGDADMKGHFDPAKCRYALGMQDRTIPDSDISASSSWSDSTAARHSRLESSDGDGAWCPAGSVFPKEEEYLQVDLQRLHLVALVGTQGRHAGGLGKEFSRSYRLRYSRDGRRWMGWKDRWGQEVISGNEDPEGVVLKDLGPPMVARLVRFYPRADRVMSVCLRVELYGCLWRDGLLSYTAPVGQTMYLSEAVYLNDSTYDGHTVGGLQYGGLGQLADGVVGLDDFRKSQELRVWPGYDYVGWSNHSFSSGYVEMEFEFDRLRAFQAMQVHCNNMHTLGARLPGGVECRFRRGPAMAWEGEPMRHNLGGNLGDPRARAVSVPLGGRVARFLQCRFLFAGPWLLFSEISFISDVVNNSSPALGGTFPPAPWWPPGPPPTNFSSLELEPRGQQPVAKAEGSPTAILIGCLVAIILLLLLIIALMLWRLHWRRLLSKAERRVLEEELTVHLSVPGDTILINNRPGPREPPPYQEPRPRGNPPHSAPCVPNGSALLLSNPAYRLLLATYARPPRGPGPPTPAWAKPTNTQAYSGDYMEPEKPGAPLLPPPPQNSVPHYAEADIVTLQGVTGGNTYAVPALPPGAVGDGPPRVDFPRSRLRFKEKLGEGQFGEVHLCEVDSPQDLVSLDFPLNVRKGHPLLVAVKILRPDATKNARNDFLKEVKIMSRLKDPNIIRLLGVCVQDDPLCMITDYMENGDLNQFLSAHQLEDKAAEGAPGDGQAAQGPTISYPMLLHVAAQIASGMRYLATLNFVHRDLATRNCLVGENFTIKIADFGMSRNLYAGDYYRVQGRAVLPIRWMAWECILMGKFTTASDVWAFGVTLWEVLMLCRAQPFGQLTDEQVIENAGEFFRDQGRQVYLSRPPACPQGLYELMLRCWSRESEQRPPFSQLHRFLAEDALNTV

## COc1ccc(-c2cc3c(c(=O)o2)C[C@]2(O)[C@@]4(C)CC[C@@H](O)C(C)(C)[C@]4(O)CC[C@@]2(C)O3)cc1
Acetylcholinesterase [1]
  IC50: 0.64 µM

## CC(C)=CCC/C(C)=C/CCC1=C[C@]2(OC1=O)c1cc(O)ccc1OC(=O)[C@@]2(CC/C=C(\C)CCC=C(C)C)CC(=O)c1cc(O)ccc1O
[2]
  IC50: 2.5 µM

## CC(=O)O[C@H]1C[C@@H](O)[C@@]2(C)[C@@H](CC[C@]3(C)[C@@H]2[C@@H](O)C[C@]2(C)Oc4oc(C)cc(=O)c4C[C@@H]32)C1(C)C
KB
  IC50: 32.7 µM
NCI-H187
  IC50: 32.7 µM

## COC(=O)[C@H](Cc1ccccc1)N1Cc2c(cc(O)c(C/C=C(\C)CC/C=C(\C)C(=O)O)c2O)C1=O
[3]
  IC50: 40.8 µM

## COC(=O)[C@H](CCCCN1Cc2c(cc(O)c(C/C=C(\C)CC/C=C(\C)C(=O)O)c2O)C1=O)N1Cc2c(cc(O)c(C/C=C(\C)CC/C=C(\C)C(=O)O)c2O)C1=O
[3]
  IC50: 36.2 µM

## C/C(=C\CC/C(C)=C/C/C=C(/CC(=O)c1cc(O)ccc1O)C(=O)O)CO
[4]
  IC50: 4.84 µM

## CC1(C)CCC[C@]23C[C@](CC(=O)c4cc(O)ccc4O)(CC[C@@H]12)C(=O)O3
RAW264.7
  IC50: 5.9 µM

## C/C(=C/CC/C(C)=C/CC/C(=C/C(=O)c1cc(O)ccc1O)C(=O)O)CO
[4]
  IC50: 3.47 µM

## O=C1C[C@]23CC[C@H](O)[C@]2(COC3=O)c2c(O)ccc(O)c21
[5]
  IC50: 25.5 µM

## CO[C@@H]1c2c3c(cc(O)c2C(=O)O[C@@H]1C)O[C@@]1(C)[C@@H](O)C[C@H]2C(C)(C)C(=O)C=C[C@]2(C)[C@@H]1C3
[6]
  IC50: 63.1 µM

## CC1(C)CCC[C@@]23C[C@@](CC(=O)c4cc(O)ccc4O)(CC[C@H]12)C(=O)O3
RAW264.7
  IC50: 6.1 µM

## C/C(=C/CC/C(C)=C/CC[C@]1(C(=O)O)CC(=O)c2cc(O)ccc2O1)C(=O)O
[4]
  IC50: 1.05 µM

## C[C@@H]1Cc2c3c(c(Cl)c(O)c2C(=O)O1)O[C@@]1(C)[C@@H](O)C[C@H]2C(C)(C)C(=O)C(Cl)(Cl)C[C@]2(C)[C@@H]1C3
[6]
  IC50: 71.6 µM

## C/C(=C\CC/C(C)=C/CCCC1(O)Oc2ccc(O)cc2C1=O)CO (configuration not stated)
[4]
  IC50: 1.38 µM

## CC(=O)O[C@@H]1C[C@@]2(C)Oc3cc(C)oc(=O)c3C[C@@H]2[C@@]2(C)C=CC(=O)C(C)(C)[C@H]12
Acetylcholinesterase [1]
  IC50: 13.6 µM

## COC/C(C=O)=C\CCC1=CC(c2cc(O)ccc2O)OC1=O (configuration not stated)
Acetylcholinesterase [7]
  IC50: 8.52 µM

## CCOC1(c2cc(O)ccc2O)C=C(CC/C=C(\C)CCC=C(C)C)C(=O)O1 (configuration not stated)
Acetylcholinesterase [7]
  IC50: 7.37 µM

## CO[C@@H]1OC(=O)[C@]2(CC(=O)c3cc(O)ccc3O)C[C@H]3[C@H](C/C=C(\CC(=O)c4cc(O)ccc4O)C(=O)O)C(C=O)=CO[C@H]3[C@]12C
[8]
  IC50: 6.9 µM

## COC1(c2cc(O)ccc2O)C=C(CC[C@@H]2C(C)(C)[C@@H]3CC[C@]2(C)O3)C(=O)O1 (some centres not stated)
[5]
  IC50: 9.96 µM

## C/C(=C\Cc1c(O)cc2c(c1O)CN(CCCC[C@@H](C(=O)O)N1Cc3c(cc(O)c(C/C=C(\C)CC/C=C(\C)C(=O)O)c3O)C1=O)C2=O)CC/C=C(\C)C(=O)O
[3]
  IC50: 39.2 µM

## CC(=O)O[C@@H]1c2c3c(cc(O)c2C(=O)O[C@@H]1C)O[C@@]1(C)[C@@H](O)C[C@H]2C(C)(C)[C@@H](O)C=C[C@]2(C)[C@@H]1C3
[6]
  IC50: 62.5 µM

## CC(C)=CCC/C(C)=C/CCC1=C[C@@]2(OC1=O)c1cc(O)ccc1OC(=O)[C@]2(CC/C=C(\C)CCC=C(C)C)CC(=O)c1cc(O)ccc1O
[2]
  IC50: 4 µM

## CO[C@H]1OC(=O)[C@@]2(CC(=O)c3cc(O)ccc3O)C[C@@H]3[C@@H](CCC4=C[C@@H](c5cc(O)ccc5O)OC4=O)C(C=O)=CO[C@@H]3[C@@]12C (racemic)
[9]
  IC50: < 10 µM

## CC(C)=CCC/C(C)=C/CCC1=C[C@]2(OC1=O)c1cc(O)ccc1OC(=O)[C@@]2(CC/C=C(\C)CCC=C(C)C)CC(=O)c1cc(O)ccc1O (racemic)
[2]
  IC50: 27.3 µM

## C=C(C)C1CCC2(C(=O)OCC)CC13Oc1c(C/C=C(/CC/C=C(\C)CCC=C(C)C)C(=O)O)cc(O)cc1-c1c(O)ccc(c13)O2 (racemic)
Staphylococcus aureus
  IC50: 5.43 µM

## CO[C@H]1OC(=O)[C@@]2(CC(=O)c3cc(O)ccc3O)C[C@@H]3[C@@H](CCC4=C[C@H](c5cc(O)ccc5O)OC4=O)C(C=O)=CO[C@@H]3[C@@]12C (racemic)
[9]
  IC50: < 10 µM

## CC(C)=CCC/C(C)=C/CCC1=C[C@]2(OC1=O)c1cc(O)ccc1OC(=O)[C@@]2(CCC=C(C)C)CC(=O)c1cc(O)ccc1O (racemic)
[10]
  IC50: 1.29 µM

## C=C(C)C1CCC2(C(=O)OCC)CC13Oc1cc(C/C=C(/CC/C=C(\C)CCC=C(C)C)C(=O)O)c(O)cc1-c1c(O)ccc(c13)O2 (racemic)
K562
  IC50: 6.68 µM
Staphylococcus aureus
  IC50: 5.43 µM

## C=C(C)C1CCC2(C(=O)OCC)CC13Oc1c(C/C=C(\CO)CC/C=C(\C)CCC=C(C)C)cc(O)cc1-c1c(O)ccc(c13)O2 (racemic)
K562
  IC50: 7.68 µM

## CC(C)=CCCC1=C[C@]2(OC1=O)c1cc(O)ccc1OC(=O)[C@@]2(CC/C=C(\C)CCC=C(C)C)CC(=O)c1cc(O)ccc1O (racemic)
[10]
  IC50: 1.29 µM
